Assay results taken from patent US4804676A, “Enkephalinase B inhibitors, their preparation, and pharmaceutical compositions containing the same” (Sankyo Company Limited, priority 1984, dated 1989).
Where two headings read alike, the source gives them in different places.

Legend:
[1] = target: T1, enkephalinase B (Rattus norvegicus, UniProt O55096); assay: Enkephalinase B inhibition IC50, method of Parker and Waud, substrate 0.1 mM methionine-enkephalin; type: biochemical
T1 construct: from tissue; host or cells: rat brain membrane, Triton X-100 solubilized, purified by DEAE chromatography, chromatofocusing and gel filtration
T1 sequence (O55096 2-738 limits assumed): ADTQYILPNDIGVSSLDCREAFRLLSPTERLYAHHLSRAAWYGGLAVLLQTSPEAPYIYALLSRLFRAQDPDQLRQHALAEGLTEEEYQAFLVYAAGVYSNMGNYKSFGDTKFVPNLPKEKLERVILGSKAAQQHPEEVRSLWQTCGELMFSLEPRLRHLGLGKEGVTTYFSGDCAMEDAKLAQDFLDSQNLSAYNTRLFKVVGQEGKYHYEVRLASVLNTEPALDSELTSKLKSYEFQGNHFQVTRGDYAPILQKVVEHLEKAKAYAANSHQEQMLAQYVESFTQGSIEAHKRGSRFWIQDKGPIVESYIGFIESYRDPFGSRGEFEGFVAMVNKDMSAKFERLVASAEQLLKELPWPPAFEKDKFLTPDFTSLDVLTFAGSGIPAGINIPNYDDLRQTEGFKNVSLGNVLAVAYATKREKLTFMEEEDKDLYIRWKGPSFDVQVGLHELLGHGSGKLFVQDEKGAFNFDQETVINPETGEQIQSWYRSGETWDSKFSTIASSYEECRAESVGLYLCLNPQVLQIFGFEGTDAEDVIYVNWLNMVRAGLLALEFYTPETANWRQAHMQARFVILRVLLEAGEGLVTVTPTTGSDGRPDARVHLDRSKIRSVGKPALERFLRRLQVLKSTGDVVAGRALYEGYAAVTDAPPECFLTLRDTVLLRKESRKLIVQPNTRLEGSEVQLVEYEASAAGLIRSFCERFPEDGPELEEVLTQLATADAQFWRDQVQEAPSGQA
Experimental: (§1) 100 g of rat brain was homogenized using 1 liter of 50 mM tris-HCl buffer (pH 7.7) and the homogenate was centrifuged at 50,000 G for 15 minutes to give a precipitate. The precipitate was washed three times and centrifuged as before. It was then suspended in 500 ml of the same buffer containing 1% of Triton X-100, and kept at 37° C. for 1 hour. The suspension was centrifuged at 100,000 G for 1 hour to give a crude enzyme solution of enkephalinase B as supernatant.
The thus obtained crude enzyme solution was dialyzed against a 5 mM sodium phosphate buffer (pH 7.0) and was applied for adsorption to a column (3.0×30 cm) of DEAE-Sephacel (produced by Pharmacia Co. Ltd.) previously equilibrated with the same buffer containing 1% Triton X-100 (solution A). The column was washed with solution A and eluted with 2.5 liters of solution A and with 2.5 liters of solution A which contains 0.4M sodium chloride by the linear concentration gradient method. […]
A mixture of 40 μl of 0.1M sodium phosphate buffer (pH 6.5), 10 μl of a Propioxatin A solution and 40 μl of an enkephalinase B solution was incubated at 37° C. for 5 minutes, then 10 μl of a 1 mM or 10 mM methionine-enkephalin solution were added, followed by stirring at 37° C. for 20 minutes. The reaction was then stopped by adding 10 μl of 2N hydrochloric acid to the reaction mixture, and the amount of tyrosyl-glycine (Tyr-Gly) produced (Vi) with respect to 20 μl of the reaction mixture was determined by high pressure liquid chromatography. Similarly, the amount of tyrosyl-glycine produced (V) in a blank test, in which no Propioxatin was contained and only a buffer was used, was measured. […]
By way of comparison, the enkephalinase B inhibition activity was also measured for the compound N-[3-(N-hydroxycarbamoyl)-2-benzylpropanoyl]alanine, which is a compound within formula (I) of the above-mentioned French patent specification No. 2 518 088 (Japanese laid-open application No. 58-150547). […]

[2] = test system: rat; assay: Analgesic action by the Randall-Selitto method after administration into the cerebral ventricle; type: in vivo
Experimental: Propioxatin A (10 μg) and enkephalin (1 mg) were administered simultaneously into the cereberal ventricle of a rat and the analgesic action thereof was examined by the Randall-Selitto method (Randall, L. D. and Selitto, J. J.; Arch. Int. Pharmacodyn. 111, 409-419 (1957)). The same quantities of Propioxatinn A and enkephalin were also administered separately, as controls.

[3] = target: T1, enkephalinase B; assay: Inhibition of enkephalinase B, Ki by the method of Dixon (Tyr-Gly released from methionine-enkephalin, HPLC); type: biochemical; conditions: for Ki: enkephalinase B, pH 6.5, 37° C., methionine-enkephalin substrate, method of Dixon, read-out: Ki value (inhibition constant)
Experimental: The presence of the desired substances, Propioxatins A and B, can be assessed quantitavely during the processes of cultivation and purification by measuring the enkephalinase B inhibition activity. To do this, methionine-enkephalin is incubated with an enkephalinase B solution containing the Propioxatin, and then the amount of the resulting product tyrosyl-glycine (Tyr-Gly) is estimated by chromatography (e.g. thin layer chromatography or high pressure liquid chromatography). A blank test without Propioxatin is also carried out, and the enkephalinase B inhibition constant is determined. The enkephalinase B solution used for this technique can be prepared from rat brain by generally-known enzyme purification methods. Since enkephalinase B exists in rat brain as a membrane-bound enzyme, it is released from the membrane and made soluble using a detergent such as Triton X-100. The solubilized enzyme is then subjected to a combination of purification processes such as ion-exchange chromatography in which various kinds of ion-exchangers having a diethylaminoethyl (DEAE) group can be used, gel filtration using a molecular sieve, or isoelectric fractionation to obtain the purified enkephalinase B. These methods are described in greater detail hereinafter in the Examples.
as §1
(§2) The thus obtained crude enzyme solution was dialyzed against a 5 mM sodium phosphate buffer (pH 7.0) and was applied for adsorption to a column (3.0×30 cm) of DEAE-Sephacel (produced by Pharmacia Co. Ltd.) previously equilibrated with the same buffer containing 1% Triton X-100 (solution A). The column was washed with solution A and eluted with 2.5 liters of solution A and with 2.5 liters of solution A which contains 0.4M sodium chloride by the linear concentration gradient method.
(§3) The obtained fraction of enkephalinase B was dialyzed against solution A, and was applied for adsorption to a column (1.6×27 cm) of DEAE-Toyopearl 670S (produced by Toyo Soda Kogyo K.K.) previously equilibrated with solution A. Elution was carried out using 500 ml of solution A and 500 ml of a solution of 0.4M sodium chloride dissolved in solution A by the linear concentration gradient method. […]

[4] = Solubility; type: physicochemical
[5] = target: T1, enkephalinase B; assay: Enzymatic properties of purified enkephalinase B (Michaelis constant); type: biochemical; conditions: purified rat brain enkephalinase B
Experimental: as §1, §2, §3

[6] = enkephalin 1 mg, Propioxatin A 10 μg

Row | Compound | type of inhibition of enkephalinase B [3] | Ki [3] [nM] | Solubility in ethanol and acetone [4] | Solubility in ethyl acetate, chloroform, benzene and ether [4] | Solubility in water, methanol and dimethyl sulfoxide [4] | further results
1 | C[C@H](NC(=O)C(CC(=O)NO)Cc1ccccc1)C(=O)O (stereo partly drawn) [Compound of FR 2 518 088, N-[3-(N-hydroxycarbamoyl)-2-benzylpropanoyl]alanine, reference compound] | – | – | – | – | – | IC50 [1]: 44200 nM
2 | CC(C)C[C@H](NC(=O)[C@H](Cc1ccccc1)NC(=O)CNC(=O)CNC(=O)[C@@H](N)Cc1ccc(O)cc1)C(=O)O [enkephalin] | – | – | – | – | – | time for analgesic effect to fall to 50% of its peak value [2, 6]: about 30 minutes; time of peak value of analgesic effect after injection [2, 6]: approximately 10 minutes
3 | CC(C)C[C@H](CC(=O)NO)C(=O)N1CCC[C@H]1C(=O)N[C@H](C(=O)O)C(C)C [Propioxatin B] | competitive inhibitor | 110 | slightly soluble | insoluble | Soluble | –
4 | CCC[C@H](CC(=O)NO)C(=O)N1CCC[C@H]1C(=O)N[C@H](C(=O)O)C(C)C [Propioxatin A] | competitive inhibitor | 13 | slightly soluble | insoluble | Soluble | IC50 ([1]; enkephalinase B, substrate 0.1 mM methionine-enkephalin, read-out: IC50 (converted)): 29.9 nM; more active than the prior art compound ([1]; ratio to the compound of FR 2 518 088, enkephalinase B IC50): approximately 1,000; analgesic effect ([2]; Propioxatin A 10 μg injected alone): No appreciable analgesic effect; prolonging the analgesic action of enkephalin ([2]; Propioxatin A 10 μg with enkephalin 1 mg): significantly effective
5 | CSCC[C@H](NC(=O)[C@H](Cc1ccccc1)NC(=O)CNC(=O)CNC(=O)[C@@H](N)Cc1ccc(O)cc1)C(=O)O [Methionine-enkephaline, Tyr-Gly-Gly-Phe-Met] | – | – | – | – | – | Km value relative to Methionine-enkephaline (Michaelis constant) [5]: 53 µM
